In publication PMC9088669 (Journal of Medical Virology, 2022):
pEC50: −log10 of the molar value. Like-named read-outs stand apart in the source and are kept apart here.

What was measured:
SARS‐CoV‐2/FFM1 [1] = experiment: microbe, parasite or virus in culture; settings: Severe acute respiratory syndrome coronavirus 2, Caco-2, 48 h, read-out: EC50 visual CPE
SARS‐CoV‐2/FFM1 [2] = tested on: SARS‐CoV‐2/FFM1
SARS‐CoV‐2 [3] = settings: read-out: EC50 reported in previous studies (range); cited from earlier work
SARS‐CoV‐2 [4] = settings: previously found; cited from earlier work

| SMILES | pEC50 (SARS‐CoV‐2/FFM1 [1]) | further results |
| --- | --- | --- |
| COc1cccc2c1C(=O)c1c(O)c3c(c(O)c1C2=O)C[C@@](O)(C(=O)CO)C[C@@H]3O[C@H]1C[C@H](N)[C@H](O)[C@H](C)O1 [Doxorubicin] | 4.92 | – |
| CCC(C)n1ncn(-c2ccc(N3CCN(c4ccc(OCC5COC(Cn6cncn6)(c6ccc(Cl)cc6Cl)O5)cc4)CC3)cc2)c1=O (stereo not shown) [Itraconazole] | 5.80 | – |
| CCN(CC)CCNC(=O)c1ccc(NS(C)(=O)=O)cc1 [Sematilide] | < 4.00 | antiviral activity in Caco‐2 cells (SARS‐CoV‐2/FFM1 [2]; Caco‐2 cells, SARS‐CoV‐2/FFM1): not active |
| Cc1c(O)cccc1C(=O)N[C@@H](CSc1ccccc1)[C@H](O)CN1C[C@H]2CCCC[C@H]2C[C@H]1C(=O)NC(C)(C)C [Nelfinavir] | 5.09 | – |
| O=C(NC1CN2CCC1CC2)c1cc(Cl)cc2c1OC1CCCCC21 (stereo not shown) [RG‐12915] | – | pEC50 (SARS‐CoV‐2/FFM1 [2]; read-out: EC50 visual CPE): 4.92 |
| CCC(CC)COC(=O)[C@H](C)N[P@](=O)(OC[C@H]1O[C@@](C#N)(c2ccc3c(N)ncnn23)[C@H](O)[C@@H]1O)Oc1ccccc1 [Remdesivir] | 5.89 | pEC50 (SARS‐CoV‐2 [3]): 5.14 to 6.11 |
| CCN(CC)CCCC(C)Nc1ccnc2cc(Cl)ccc12 (stereo not shown) [Chloroquine] | – | activity in SARS‐CoV‐2–infected Caco‐2 cells (SARS‐CoV‐2 [4]): inactive |
| CCN(CCO)CCCC(C)Nc1ccnc2cc(Cl)ccc12 (stereo not shown) [Hydroxychloroquine] | – | activity in SARS‐CoV‐2–infected Caco‐2 cells (SARS‐CoV‐2 [4]): inactive |
